According to patent publication US5985261A, “Use of thioredoxin-like molecules for induction of MnSOD to treat oxidative damage” (National Jewish Medical and Research Center, priority 1997, dated 1999):
Starred links: 1 amine or outer side, 2 acyl side, 3 side chain; linkers in the order of their positions; H or OH if unused. Positions of bridges follow the written chain, without caps; N, C: chain ends. Non-standard residues stand in square brackets, D forms with d. Residues, ends and D or L forms follow the SMILES beside them. Chains are numbered I, II in the order given. Actinocin(9to1) = Cc1c2oc3c(C)ccc(C(=O)[*:1])c3nc-2c(C(=O)[*:2])c(N)c1=O; NMeV = CN[C@H](C(=O)O)C(C)C; Sar = CNCC(=O)O

Tested on: MnSOD mRNA in A549 cells
Experiment: Effect on MnSOD mRNA induction by thioredoxin in A549 cells (Northern blot)
Format: cell-based, human
Method: Reduced thioredoxin (recombinant, E. coli; Promega) was prepared by treating 1 mM thioredoxin with 2 mM dithiothreitol (DTT) for 20 min at room temperature followed by removal of excess DTT using a G-25 spin column. A549 cells were grown in F-12K medium with 10% serum. Confluent monolayers were treated with oxidized thioredoxin (3 or 7 μM), with and without the thioredoxin reducing system [thioredoxin reductase (0.1 μM)+NADPH (2 mM)]. Incubations were for 16 hours. Total RNA was isolated from cells by guanidine isothiocyanate lysis and cesium chloride centrifugation of the lysate (147,000× g, 20-25° C.) in an ultracentrifuge (Beckman) by the methods of Sambrook et al., ibid. Total RNA was quantified spectrophotometrically.
Twenty micrograms of RNA was resolved by electrophoresis in 1% agarose, 2.5 M formaldehyde gel in a buffer containing 20 mM MOPS and 1 mM EDTA (pH 7.4). RNA was transferred to nitrocellulose and blots were prehybridized 2-12 hours in 50% formamide, 0.75 M sodium chloride, 0.075 M sodium citrate (pH 7.0), 5× Denhardt's solution, 50 μg/ml salmon sperm DNA, and 0.1% SDS at 42° C. Blots were hybridized with cDNA for MnSOD labeled to a specific activity of 2-7×10^7 cpm using ^32 P-γ CTP (ICN) in hybridization solution at 42° C. overnight and then were washed in 0.3 M sodium chloride, 0.03 M sodium citrate, 0.1% SDS at 42° C. Autoradiographs were made by exposing blots to x-ray film (Kodak) at -70° C. with intensifying screens. Blots were exposed to phosphor-imager screens (Molecular Dynamics) and densitometry was performed with a Macintosh computer using MD Image Quant Version 3.35.
To evaluate the effect of oxidation of TRX-SH2 on MnSOD induction, A549 cells were incubated with diamide (2 mM; 30 min) or CDNB (100 μM; 45 min). After incubation, cells were washed and fresh medium added. The cells next were incubated with oxidized thioredoxin (28 μM; 6 h) and then processed for Northern analysis as described in Example 2.
A549 cells were incubated with actinomycin D ([…]), a transcriptional inhibitor, or cyclohexamide (10 μg/ml), a translation inhibitor, for 1 hour followed by addition of thioredoxin (28 μM) and further incubation for a period of 16 hours. mRNA was quantified as previously described.

Cc1c2oc3c(C)ccc(C(=O)N[C@@H]4C(=O)N[C@H](C(C)C)C(=O)N5CCC[C@H]5C(=O)N(C)CC(=O)N(C)[C@@H](C(C)C)C(=O)O[C@@H]4C)c3nc-2c(C(=O)N[C@@H]2C(=O)N[C@H](C(C)C)C(=O)N3CCC[C@H]3C(=O)N(C)CC(=O)N(C)[C@@H](C(C)C)C(=O)O[C@@H]2C)c(N)c1=O [actinomycin D] (I: T[dV]P[Sar][NMeV] / II: T[dV]P[Sar][NMeV]; ester I:1-I:C, II:1-II:C; linker I:N-II:N via Actinocin(9to1))
effect on production of MnSOD mRNA (actinomycin D, 1 hour, then thioredoxin 28 μM, 16 hours): inhibited

C[C@@H]1C[C@@H]([C@H](O)CC2CC(=O)NC(=O)C2)C(=O)[C@@H](C)C1 [Cycloheximide, cycloheximide]
effect on thioredoxin-mediated increase in MnSOD mRNA (cyclohexamide 10 μg/ml, 1 hour, then thioredoxin 28 μM, 16 hours): potentiated the thioredoxin-mediated increase in MnSOD mRNA

CN(C)C(=O)/N=N/C(=O)N(C)C [diamide]
effect on elevation of MnSOD mRNA by thioredoxin (diamide 2 mM, 30 min, washed, then oxidized thioredoxin 28 μM, 6 h): prevented elevation of MnSOD mRNA by thioredoxin

O=[N+]([O-])c1ccc(Cl)c([N+](=O)[O-])c1 [CDNB]
effect on increased expression of MnSOD mRNA by thioredoxin (CDNB 100 μM, 45 min, washed, then oxidized thioredoxin 28 μM, 6 h): prevented increased expression of MnSOD mRNA by thioredoxin
